From publication PMC2921400 (PLoS ONE, 2010)
Where “and” joins values, the source holds several entries; their conditions need not be identical. Identical values can stand only once. Like-named read-outs stand apart in the source and are kept apart here.

Key:
gp120 (IIIB)-CD4 complex = target: T1, gp120 (IIIB)-CD4 complex (Homo sapiens, UniProt P01730); test: gp120 capture ELISA, inhibition of gp120-CD4 complex formation; type: binding, HIV-1
T1 construct: soluble extracellular portion of CD4 (sCD4); purchased ImmunoDiagnostics, Inc., MA
Experimental: Figure 3 Inhibition of gp120-CD4 complex formation. Inhibition of gp120-CD4 complex formation was investigated by gp120 capture ELISA. […] Strepavidin-HRP was added, and then developed by addition of o-Phenylenediamine dihydrochloride (OPD) substrate. Colorimetric reaction was stopped by adding 1N HCl, and read at 490 nm. Percent of gp120-CD4 binding was calculated from gp120-CD4 complex formation in the absence of any inhibitor. pKi (-log Ki, M) was calculated and plotted in Prizm (GraphPad Software), and inhibition constant, Ki, was calculated by using the equation Ki = IC50/(1+[CD4]/Kd), based on IC50 concentration of bound CD4, [CD4] = 50 nM, and CD4 binding affinity for gp120, Kd = 5 nM. Representative of three experiments, all data are mean ± SD.
Inhibition of gp120-CD4 complex formation was investigated by CD4-to-gp120 capture ELISA, in accordance with manufacturer's instructions (ImmunoDiagnostics, Inc., MA), and as previously described. […] Strepavidin-HRP was added, and then developed by addition of OPD substrate. Colorimetric reaction was stopped by adding 1N HCl, and read at 490 nm. Percent of gp120-CD4 binding was calculated from gp120-CD4 complex formation in the absence of any inhibitor.

[1] = target: T2, soluble extracellular portion of CD4 (sCD4) (Homo sapiens, UniProt P01730); test: sCD4 tryptophan fluorescence titration; type: binding; conditions: for Kd: pH 7.4, single site binding isotherm; for quenching of sCD4 tryptophan fluorescence / red shift of the emission peak: saturating concentrations of PA analog
T2 construct: soluble extracellular portion of CD4 (sCD4); purchased Progenics Pharmaceuticals, Inc
Experimental: The tryptophan fluorescence of the soluble extracellular portion of CD4 (sCD4) was used to estimate binding affinity of PA analogs for sCD4 in-vitro (Figure 2).
Figure 2 In vitro experiments of PA analogs binding to sCD4. Binding isotherm of the sCD4 tryptophan fluorescence at the wavelength of 350 nm with the increasing concentration of A) 2-BP, B) 6-AP, and C) SP; D) stoichiometric binding of 2-BP to sCD4. Tryptophan fluorescence was measured using an excitation wavelength of 280 nm. In all cases, we observed tryptophan fluorescence quenching of sCD4 by the increasing concentration of PA analogs. During stoichiometric binding experiment the concentration of sCD4 was kept at 200 nM, which is well above the dissociation constant of 2-BP-sCD4, 74 nM. Curve fitting (OriginLab) was performed to find the best values for Kd using a single site binding isotherm approximation.
Since PA analogs form micelles at micromolar concentration it was important to characterize binding stoichiomentry of PA analogs to CD4 (Figure 2D). […] The concentration of sCD4 was kept at 200 nM, which is well above the 74 nM dissociation constant of 2-BP-CD4. In this case, titrated 2-BP was fully bound. The observed changes in sCD4 fluorescence would level off when 2-BP-sCD4 reached proper stoichiometry.
Measurements were performed on a Fluorolog-3 fluorescence spectrophotometer (HORIBA Jobin Yvon) at 25°C in a 1-ml stirred cuvette. For fluorescence titration experiments, 100 nM of sCD4 dissolved in 10 mM phosphate buffer [pH 7.4] and 250 mM NaCl was used, and 100 µM solution of PA analogs, 2-BP, 6-AP, and SP dissolved in dimethylsulfoxide (DMSO) was added in 10 nM steps. Titrations in the absence of sCD4 and in the absence PA analogs were performed as reference. Tryptophan fluorescence was measured using an excitation wavelength of 280 nm. The fluorescence emission signal was subtracted from the signal of the reference titrations, and the differences adjusted by the dilution factor were plotted against the final concentration of added PA analogs. Curve fitting (OriginLab) was performed to find the best values for Kd using a single site binding isotherm approximation.

[2] = MTT viability assay in 1G5 cells; type: cell-based; conditions: human, 1G5 cells, 100 to 10,000 nM, up to 72 h, vs untreated mock control
Experimental: (§1) To ascertain possible toxicity of PA analogs, we tested each analog in cell culture system (Figure 4). 1G5 cells were treated with increasing concentrations of 2-BP, 6-AP, or SP, from 100 to 10,000 nM, and viability was determined by MTT assay at 24 h. (not shown) and at 72 h (Figure 4). Viability for all treatments and at all concentrations tested, remained ≥92% for up to 72 h. of follow-up.
(§2) Figure 4 Viability of PA analogs in tissue culture. 1G5 cells were treated with increasing concentrations of 2-BP, 6-AP, and SP, as indicated, and cell viability was determined 72 h. after treatment by MTT assay. % Viable cells were calculated from untreated mock control, which was taken as 100% viable. Bars indicate ± SD, representative of 2 experiments.
(§3) For determination of viability, 1G5 cells were seeded in 12 well plates at 1×10^6 cells/well, treated with increasing concentrations of PA analogs, from 100 to 10,000 nM (0.1 to 10 µM), as indicated. After 24 and 72 hours, cells were collected and analyzed for viability by a CellTiter 96 Non-Radioactive Cell Proliferation Assay [(3-(4,5-Dimethyl-2-thiazolyl)-2,5 dephenyltetrazolium, Promega,] (MTT) assay, as specified by the manufacturer, and as previously described.

soluble gp120 = target: T3, soluble gp120 (Human immunodeficiency virus type 1 group M subtype B, UniProt P03375); test: reverse ELISA: plates coated with sCD4, gp120 incubated with compound; type: binding, HIV-1; conditions: plates coated with sCD4, gp120 incubated with increasing concentrations (not shown)
T3 construct: purchased

[3] = critical micelle concentration by 1D proton NMR; type: physicochemical
1G5 cells = test: MTT viability assay in 1G5 cells; type: cell-based; conditions: 100 to 10,000 nM, up to 72 h, vs untreated mock control
Experimental: as §1, §2, §3

R5-tropic HIV-1 [4] = conditions: primary PBL and macrophages; read-out: IC50 of productive R5-tropic HIV-1 infection; cited from earlier work
gp120-to-CD4 attachment = target: gp120-to-CD4 attachment; parameters: method as in submitted for publication; conditions: ref submitted for publication; read-out: Ki for blocking gp120-to-CD4 attachment; cited from earlier work
X4-tropic HIV-1 = conditions: primary PBL and macrophages; read-out: IC50 of productive X4-tropic HIV-1 infection; cited from earlier work
R5-tropic HIV-1 [5] = tested on: R5-tropic HIV-1; parameters: method as in submitted for publication; conditions: ref submitted for publication, cited from earlier work
CD4 receptor = conditions: cited from earlier work
gp120 = conditions: cited from earlier work
[6] = Ki = IC50/(1+[CD4]/Kd), [CD4] = 50 nM, Kd = 5 nM, read-out: Ki, inhibition constant for gp120-CD4 complex formation
[7] = 100 nM sCD4, 25°C, read-out: Kd, dissociation constant for sCD4

Compound | Ki (gp120 (IIIB)-CD4 complex; [6]) | Ki (gp120 (IIIB)-CD4 complex; pKi (-log Ki, M), gp120 (IIIB), 50 nM biotin-sCD4, mean ± SD) | Kd ([1]; Kd, dissociation constant for sCD4, 100 nM sCD4, 25°C) | quenching of sCD4 tryptophan fluorescence [1] | red shift of the emission peak [1] | concentration at which fluorescence quenching was saturated ([1]; stoichiometric titration, sCD4 kept at 200 nM) | viability [2] | inhibition of gp120-CD4 complex formation in reverse experiment (soluble gp120) | cmc, critical micelle concentration [3] | pKi (-log Ki, M) (gp120 (IIIB)-CD4 complex; gp120 (IIIB), 50 nM biotin-sCD4, mean ± SD) | Kd [1, 7] | viability (1G5 cells) | Ki (gp120 (IIIB)-CD4 complex; Ki, inhibition constant for gp120-CD4 complex formation, Ki = IC50/(1+[CD4]/Kd), [CD4] = 50 nM, Kd = 5 nM) | IC50 (R5-tropic HIV-1 [4]) | Ki (gp120-to-CD4 attachment) | IC50 (X4-tropic HIV-1) | inhibition of R5-tropic HIV-1 infection (R5-tropic HIV-1 [5]; cervical explant model of human vagina and submucosa primary PBL and macrophage cells) | toxicity in cervical explant model (R5-tropic HIV-1 [5]; cervical explant model of human vagina) | Kd (CD4 receptor) | binding to gp120 (gp120)
CCCCCCCCCCCCCCC(Br)C(=O)O (centres unmarked) [2-BP, 2-Bromohexadecanoic acid] | 122 nM and ~122 nM | 120 nM | 74 nM and ~74 nM | 50% | 4 nm | 200 µM | ≥ 92% | not inhibited | 5 µM | – | – | – | – | – | – | – | – | – | – | –
Sucrose palmitate [SP] | 1490 nM and ~1490 nM | – | – | 60% | 5 nm | – | – | not inhibited | 30 µM | 5.83 ± 0.15 | 364 nM and ~364 nM | ≥ 92% | – | – | – | – | – | – | – | –
CCCCCCCCCCCCCCCC(=O)OC[C@H](O)[C@H]1OC(=O)C(O)=C1O [6-AP, 6-O-Palmitoyl-L-ascorbic acid] | – | – | – | 40% | 3 nm | – | ≥ 92% | not inhibited | 7 µM | – | 140 nM and ~140 nM | – | 354 nM and ~354 nM | – | – | – | – | – | – | –
CCCCCCCCCCCCCCCC(=O)O [PA, Palmitic acid] | – | – | – | – | – | – | – | – | 4 µM | – | – | – | – | ~33000 nM | ~2530 nM | ~340 nM | inhibited | without toxicity | ~1500 nM | does not bind to gp120
